The values below come from ChEMBL document CHEMBL1201862, “PubChem BioAssay data set” (2004).

SMILES strings stand for the structures. Several values for one entry are separate records, joined by “and”; a condition that tells them apart may be missing. Equal entries are not always repeated.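 Briefly, cells in 96-well plates were exposed to five compound concentrations for 48 h, and endpoints were estimated by linear interpolation. Here, GI50 denotes the concentration required for 50% inhibition of growth.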 Activity calls are given as the source filed them. No stated cut-off is given here; in the data, active = GI50 up to about 1.1 µM and inactive = higher.

Among the test systems are UO-31; UACC-62; CCRF-CEM; SR; U-251; M14; MDA-MB-435; SF-295; HT-29; SNB-19; SK-MEL-28; HOP-62; OVCAR-8; OVCAR-3; OVCAR-5; K562; SK-OV-3; RXF 393; HCC 2998; MDA-MB-231.
Holding throughout (assay): NCI-60 cell line screen, 48 h

For the compound `COc1ccc(NC(=S)NN=C(C)c2cccc(C(C)=NNC(=S)Nc3ccc(OC)cc3)n2)cc1`, the GI50 in the experiment with UO-31 is 6.65 µM (inactive); in the experiment on UACC-62, > 100 µM (inactive); in the experiment with CCRF-CEM, 3.33 µM (inactive); with SR, 3.13 µM (inactive); with U-251, 24.5 µM (inactive); in the experiment with M14, 11.2 µM (inactive). The GI50 in the experiment on MDA-MB-435 was 85.5 µM (inactive); in the experiment with SF-295 it was 11.2 µM (inactive); in the experiment on HT-29 it was 28.2 µM (inactive); with SNB-19, > 100 µM (inactive); with SK-MEL-28, > 100 µM (inactive); in the experiment with HOP-62, 26.1 µM (inactive). The GI50 is 9.51 µM (inactive) in the experiment on OVCAR-8; 13.9 µM (inactive) in the experiment on OVCAR-3; > 100 µM (inactive) with OVCAR-5; 31.3 µM (inactive) with K562; 21.4 µM (inactive) in the experiment with SK-OV-3; > 100 µM (inactive) with RXF 393. Also, the GI50 in the experiment with HCC 2998 was 37.7 µM (inactive).

Consider `COc1ccc2c(c1)/C(=C\c1c(-c3ccccc3)nc3n1CCS3)C(=O)N2`, for which the GI50 with UO-31 is 9.82 µM (inactive); with UACC-62 it was 4.83 µM (inactive); with CCRF-CEM it was 4.1 µM (inactive); in the experiment on U-251 it was 7.28 µM (inactive); in the experiment with M14, 6.9 µM (inactive); with MDA-MB-435, 1.53 µM (inactive). For the same compound, the GI50 in the experiment with SF-295 is 3.79 µM (inactive); in the experiment with HT-29, 3.71 µM (inactive); in the experiment with SNB-19, 49.7 µM (inactive); with SK-MEL-28, 11.1 µM (inactive); in the experiment on HOP-62, 10.5 µM (inactive); in the experiment with OVCAR-8, 14.6 µM (inactive). Moreover, the GI50 is 3.82 µM (inactive) in the experiment on OVCAR-3; 4.03 µM (inactive) in the experiment on MDA-MB-231; 14.8 µM (inactive) with OVCAR-5; 2.94 µM (inactive) in the experiment with K562; 12.7 µM (inactive) with SK-OV-3; 13.6 µM (inactive) in the experiment on RXF 393. Further, the GI50 with HCC 2998 is 10.6 µM (inactive).

As to `CNC(=O)CCCNC(=O)CCCC(=O)OC`, the GI50 with UO-31, with UACC-62, in the experiment with CCRF-CEM, in the experiment with U-251, in the experiment on M14 and with MDA-MB-435 was > 100 µM (inactive) in each case. In addition, the GI50 in the experiment on SF-295, with HT-29, with SNB-19, in the experiment on SK-MEL-28, in the experiment on HOP-62 and with OVCAR-8 was > 100 µM (inactive) throughout. Besides, the GI50 in the experiment on OVCAR-3, in the experiment on MDA-MB-231, in the experiment with OVCAR-5, in the experiment on K562, in the experiment with SK-OV-3 and in the experiment on HCC 2998 was > 100 µM (inactive) in each case.

With `CC(=O)[C@]1(O)Cc2c(O)c3c(c(O)c2C(OC2OC(C)C(O)C(O)C2F)C1)C(=O)c1ccccc1C3=O` (stereo partly drawn), the GI50 with UO-31 was < 0.01 µM (active); with UACC-62, 0.0791 µM (active); with CCRF-CEM it was < 0.0141 µM (active); in the experiment on U-251 it was < 0.0159 µM (active); in the experiment on M14, 0.0951 µM (active); with MDA-MB-435, 0.371 µM (active). Besides, the GI50 was < 0.014 µM (active) with SF-295; 0.109 µM (active) with HT-29; < 0.0199 µM (active) with SNB-19; 0.547 µM (active) with SK-MEL-28; < 0.0189 µM (active) in the experiment on HOP-62; 0.0238 µM (active) in the experiment on OVCAR-8. For the same compound, the GI50 in the experiment on OVCAR-3 was 0.568 µM (active); in the experiment with MDA-MB-231, 0.115 µM (active); in the experiment on OVCAR-5, 0.125 µM (active); with K562, 0.083 µM (active); in the experiment on SK-OV-3, 0.135 µM (active); in the experiment on RXF 393, 0.624 µM (active). In addition, in the experiment with HCC 2998, the GI50 was 0.208 µM (active).

Take `C=C(C)COc1cc(/N=C(/S)OC(C)C)ccc1Cl`: the GI50 was 13.5 µM (inactive) with UO-31; 17.3 µM (inactive) in the experiment on UACC-62; 13.5 µM (inactive) in the experiment on CCRF-CEM; 16.9 µM (inactive) with U-251; 17.2 µM (inactive) with M14; 15.2 µM (inactive) with MDA-MB-435. In addition, the GI50 with SF-295 is 15.5 µM (inactive); in the experiment on HT-29, 14.4 µM (inactive); with SNB-19, 18.8 µM (inactive); in the experiment with SK-MEL-28, 17.3 µM (inactive); in the experiment on OVCAR-8, 16.2 µM (inactive); in the experiment with OVCAR-3, 15.8 µM (inactive). Also, the GI50 in the experiment with MDA-MB-231 is 15.4 µM (inactive); in the experiment on OVCAR-5, 15.7 µM (inactive); in the experiment on K562, 11.7 µM (inactive); with SK-OV-3, 19.3 µM (inactive); in the experiment with HCC 2998, 15.5 µM (inactive).

As to `CC(=O)OC1OC(C2c3cccc(O)c3C(=O)c3c(O)cc(CO)cc32)C(O)C(O)C1O` (stereo not drawn), the GI50 in the experiment with UO-31 is 6.46 µM (inactive) and 7.96 µM (inactive); with UACC-62, 4.22 µM (inactive) and 4.29 µM (inactive); in the experiment on CCRF-CEM, 3.04 µM (inactive) and 3.18 µM (inactive); with SR, 2.67 µM (inactive) and 1.93 µM (inactive); with U-251 it was 3.66 µM (inactive); in the experiment on M14, 10.5 µM (inactive) and 9.42 µM (inactive). Moreover, the GI50 is 3.72 µM (inactive) and 3.19 µM (inactive) with MDA-MB-435; 2.72 µM (inactive) and 3.62 µM (inactive) in the experiment on SF-295; 3.74 µM (inactive) and 3.92 µM (inactive) in the experiment with HT-29; 2.88 µM (inactive) and 3.33 µM (inactive) in the experiment on SNB-19; 2.92 µM (inactive) in the experiment on SK-MEL-28; 4.31 µM (inactive) and 3.61 µM (inactive) in the experiment with OVCAR-8. Also, the GI50 is 3.94 µM (inactive) and 2.4 µM (inactive) in the experiment with OVCAR-5; 3.16 µM (inactive) and 3 µM (inactive) in the experiment on K562; 4.14 µM (inactive) and 2.62 µM (inactive) with SK-OV-3; 9.4 µM (inactive) and 6.84 µM (inactive) in the experiment with RXF 393; 1.85 µM (inactive) and 3.03 µM (inactive) with HCC 2998.

Consider `Cc1ccc2c(=O)cc(Cc3cccs3)[nH]c2n1`, for which the GI50 with UO-31, with UACC-62, in the experiment on CCRF-CEM, with U-251, with M14 and in the experiment on MDA-MB-435 was > 100 µM (inactive) throughout. Moreover, the GI50 in the experiment with SF-295, with HT-29, in the experiment on SNB-19, in the experiment on SK-MEL-28, in the experiment on HOP-62 and in the experiment on OVCAR-8 was > 100 µM (inactive) in each case. The GI50 in the experiment on OVCAR-3, with MDA-MB-231, with OVCAR-5, in the experiment on K562, with SK-OV-3 and in the experiment with RXF 393 was > 100 µM (inactive) each time.

Consider `C[C@]12CC[C@@H]3c4cc(Br)c(O)c(Br)c4CC[C@H]3[C@@H]1CC(Br)C2=O` (stereo partly drawn), for which the GI50 in the experiment on UO-31 is 1.23 µM (inactive); in the experiment on UACC-62, 3.59 µM (inactive); with CCRF-CEM it was 1.71 µM (inactive); in the experiment on U-251, 3.3 µM (inactive); in the experiment with M14 it was 7.03 µM (inactive); in the experiment with MDA-MB-435, 4.13 µM (inactive). The GI50 in the experiment with SF-295 was 16.6 µM (inactive); in the experiment on HT-29, 3.26 µM (inactive); with SK-MEL-28, 7.28 µM (inactive); in the experiment on OVCAR-8, 2.54 µM (inactive); with OVCAR-3, 2.58 µM (inactive); in the experiment on MDA-MB-231, 6.62 µM (inactive). The GI50 with OVCAR-5 was 22.1 µM (inactive); in the experiment with K562, 2.29 µM (inactive); in the experiment on SK-OV-3, 14.6 µM (inactive); in the experiment with RXF 393, 2.51 µM (inactive); in the experiment with HCC 2998, 1.99 µM (inactive).

As to `CC(C)OP(=O)(OC(C)C)C(C(F)(F)F)C(F)(F)F`, the GI50 in the experiment on UO-31, in the experiment with UACC-62, in the experiment with CCRF-CEM, in the experiment on SR, in the experiment on U-251 and in the experiment on M14 was > 100 µM (inactive) in each case. For the same compound, the GI50 in the experiment on MDA-MB-435, in the experiment with SF-295, with HT-29, with SNB-19, in the experiment with SK-MEL-28 and in the experiment with HOP-62 was > 100 µM (inactive) in each case. Moreover, the GI50 in the experiment on OVCAR-8, in the experiment with OVCAR-3, with OVCAR-5, in the experiment with K562, with SK-OV-3 and in the experiment on RXF 393 was > 100 µM (inactive) each time. In addition, the GI50 in the experiment with HCC 2998 is > 100 µM (inactive).

With `CCN(CC)c1c(-c2c(N(CC)CC)c(OC(C)=O)c3sccn3c2=O)c(=O)n2ccsc2c1OC(C)=O`, the GI50 was 93.1 µM (inactive) with UO-31; 81.7 µM (inactive) in the experiment with UACC-62; > 100 µM (inactive) with CCRF-CEM; 37.5 µM (inactive) in the experiment with U-251; > 100 µM (inactive) in the experiment on M14; > 100 µM (inactive) in the experiment with MDA-MB-435. Besides, the GI50 with SF-295 was 32 µM (inactive); in the experiment on HT-29, > 100 µM (inactive); in the experiment on SNB-19, 59.6 µM (inactive); with SK-MEL-28 it was > 100 µM (inactive); in the experiment with HOP-62, 21.3 µM (inactive); with OVCAR-8, 33 µM (inactive). Further, the GI50 was > 100 µM (inactive) in the experiment on OVCAR-3; 21.1 µM (inactive) in the experiment with MDA-MB-231; > 100 µM (inactive) in the experiment on OVCAR-5; > 100 µM (inactive) in the experiment on K562; 73.3 µM (inactive) in the experiment on SK-OV-3; > 100 µM (inactive) in the experiment with HCC 2998.

`c1cc(NNc2cccc(-c3nnn[nH]3)c2)cc(-c2nnn[nH]2)c1`: the GI50 with UO-31, with UACC-62, with U-251, in the experiment on M14, in the experiment with MDA-MB-435 and in the experiment on SF-295 was > 100 µM (inactive) each time. In addition, the GI50 with HT-29, with SNB-19, with SK-MEL-28, in the experiment with HOP-62, in the experiment on OVCAR-8 and in the experiment on OVCAR-3 was > 100 µM (inactive) in each case. Further, the GI50 in the experiment with MDA-MB-231, with OVCAR-5, with K562, in the experiment with SK-OV-3 and with RXF 393 was > 100 µM (inactive) in each case.
